The results in this text go back to patent US20110263642A1, “METHODS FOR TREATMENT OF MULTIPLE SCLEROSIS” (FibroGen, Inc., priority 2008, published 2011).

Test [1] concerns EAE animal model of multiple sclerosis. The test can be described thus: EAE induced by MBP injection in Lewis rats, prophylactic versus treatment dosing (second series). The class given is in vivo. The procedure:
In another series of experiments, the effectiveness of compounds and methods of the present invention on treating established multiple sclerosis in an EAE model was examined as follows. EAE was induced in female Lewis rats (200-220 g) as described above. Compound of the invention (30 mg/kg) or vehicle control was administered p.o. daily from day 3 to day 21 following MBP injection (prophylactic group) or from the day first symptoms appeared to day 21 (treatment group). Dexamethasone (1 mg/kg) was administered subcutaneously at 1 mg/kg from day 8 to day 12 following MBP injection.
Neurological scoring was performed daily from day 7 to day 21 following […]. Grading of disease severity (i.e., disease score) was based on the following observations performed by two different observers: 0=no abnormality; 1=distal weakness of the tail; 2=complete weakness of the tail; 3=mild weakness in one or two hindlimbs; 4=moderate paraparesia of one or two hindlimbs; 5=total paraplegia. Analysis of variance (ANOVA) was performed on data from the measured (clinical score) or the calculated (severity score) parameters. Fisher's Protected Least Significant Difference was used for pairwise comparisons. p value≦0.05 were considered significant.
(§1) Cumulative EAE disease score, used as a measure of overall disease severity, was determined by adding all disease/neurological scores for each animal over the time course of the experiment.

Test [2] has the same test system. Put plainly: EAE induced by MBP injection in Lewis rats, neurological disease scoring (first study, dosing day 3-21). The following applies: for reduction in disease severity compared to vehicle-treated control EAE animals: day 3 to day 21 after MBP injection. The format is in vivo.
Source text: Experimental allergic encephalomyelitis (EAE, also referred to as experimental autoimmune encephalomyelitis) is currently the best animal model of human multiple sclerosis (MS). In this model, induction of EAE occurs following, for example, injection of spinal cord homogenate or central nervous system (CNS) antigens, such as myelin basic protein (MBP), myelin olidgodendrocyte glycoprotein, or proteolipid protein. Approximately 10 days following injection of CNS antigens, susceptible rats (e.g., Lewis rats) develop a progressive paralysis similar to that observed in humans.
Female Lewis rats of approximately 220 grams were used in this study (Janvier; Le Genest St Isle, France). Compounds of the invention were formulated in water containing 10% cremophor and 60 mM L-histidine to achieve a final concentration of either 2 mg/ml or 6 mg/ml. Dexamethasone was dissolved in saline at a concentration of 0.1 mg/ml.
Induction of EAE by injection with myelin basic protein (MBP) antigen was performed as follows. Prior to injection with the MBP antigen (day 0), rats were anaesthetized by injection of 60 mg/kg of ketamine (Imalgene500®, Rhone Mérieux, Lyon, France) plus 4 mg/kg of xylazine (Rompum 2%, Bayer Pharma, Kiel, Germany). Rats were then injected in the hind footpad with a total volume of 100 μl of MBP inoculum solution per paw containing 100 μg of MBP antigen (Sigma, L'Isle d'Abeau Chesnes, France) emulsified (1:1) containing incomplete Freund's adjuvant (IFA) (Sigma, L'Isle d'Abeau Chesnes, France) and 500 μg of heat-inactivated mycobacterium tuberculosis (strain H 37 RA from Difco). Control rats were similarly injected with an equivalent volume of inoculum without MBP. […]
Neurological scoring was performed daily from day 7 to day 21 following BP injection. […] Analysis of variance (ANOVA) was performed on data from the measured (clinical score) or the calculated (severity score) parameters. […]
as §1

For test [3], the system named is EAE animal model of chronic progressive multiple sclerosis. The test can be described thus: Chronic progressive EAE induced by MOG35-55 and pertussis toxin in mice, neurological scoring to day 35. The conditions noted are these: for treated animals in which development of EAE disease was prevented / No. of Animals Showing No Disease Activity: through day 35. The class given is in vivo, C57BL/6 mice. The text has this: A chronic progressive model of EAE is an accepted animal model of human chronic progressive multiple sclerosis (MS). In this model, induction of chronic progressive EAE occurs following injections of myelin oligodendrocyte glycoprotein (MOG). Approximately 8 to 14 days after injection of MOG, animals develop chronic progressive paralysis similar to that observed in humans with chronic progressive MS.
Female C57BL/6 mice (8-10 weeks old) were used in this study (Taconic Farm, CA). Compounds of the present invention were formulated in 0.5% carboxymethyl cellulose (CMC) with 0.1% Polysorbate 80 to achieve a final concentration of either 1.2 mg/ml or 4.0 mg/ml. FTY-720 was also formulated in 0.5% carboxymethyl cellulose (CMC) with 0.1% Polysorbate 80 to achieve a final concentration of 2.0 mg/ml.
Induction of chronic progressive EAE by injection with myelin oligodendrocyte glycoprotein (MOG) was performed as follows. Mice were injected subcutaneously with 200 μg of myelin oligodendrocyte glycoprotein (MOG35-55) peptide emulsion in both sides of their pectoral regions (50 μl each side). At 8 hours and 48 hr after immunization with MOG, animals were injected intraperitoneally with 400 ng of pertussis toxin (PT) in 100 μl of saline. Control mice received both injections with an equivalent volume of saline without MOG or PT.
[…] FTY-720 (10 mg/kg) was used in this study as a positive control and was administered daily from day 0 to day 35.
Neurological scoring was performed daily from day 7 to day 35 following MOG injection. Grading of disease severity (i.e., disease score) was based on the following observations performed by two different observers: 0=no abnormality; 1=distal weakness of the tail (limp tail); 2=limp tail and weakness of hind legs (mild paraparesis); 3=limp tail and complete paralysis of hind legs or paralysis in one of one front leg and one hind leg (moderate paraparesis); 4=limp tail, complete hind leg and partial front leg paralysis (moderate quadraparesis); 5=complete hind and front leg paralysis (moribund). Analysis of variance (ANOVA) was performed on data from the measured (neurological score) parameters. p value≦0.05 were considered significant.

On to `N#Cc1nc(C(=O)NCC(=O)O)c(O)c2c(Oc3ccccc3)cccc12` [Compound A, [(1-Cyano-4-hydroxy-5-phenoxy-isoquinoline-3-carbonyl)-amino]-acetic acid], for which the “cumulative disease score (AUC)” value in test [1] (30 mg/kg p.o., both prophylactic group and treatment group, FIGS. 4A and 4B) is listed as “reduced”; in test [2] (either 10 mg/kg or 30 mg/kg p.o. daily, day 3-21, FIG. 2), “reduced”. In addition, the “reduction in disease severity compared to vehicle-treated control EAE animals” value in test [1] (prophylactic group: 30 mg/kg p.o. daily, day 3 to day 21) was determined as 31%; in test [1] (treatment group: 30 mg/kg p.o. daily, first symptom to day 21, p<0.05), 19%; in test [2] (10 mg/kg p.o. daily), 17%; in test [2] (30 mg/kg p.o. daily, p<0.05) it was 46%. Further, the “treated animals in which development of EAE disease was prevented” value in test [3] (10 mg/kg as printed) was found to be 40%; in test [3] (30 mg/kg as printed, p<0.05) it was 43%. In test [3] (10 mg/kg or 30 mg/kg as printed, p.o. three times a week, day 0-35, FIG. 5), the “disease severity compared to vehicle-treated control EAE animals” value is “reduction in disease severity at all timepoints”. Also, the “No. of Animals Showing No Disease Activity” value is reported as 6/15 in test [3] (first EAE/Cmpd A row, dose not printed in Table 4 (Table 3: 6 mg/kg/d, 3 times a week)) and 6/14 in test [3] (second EAE/Cmpd A row, dose not printed in Table 4 (Table 3: 20 mg/kg/d, 3 times a week)).
